Measured values as given in patent US20230416299A1, “COMPOUND AND METHOD FOR THE TREATMENT AND DIAGNOSIS OF NEURODEGENERATIVE CONDITIONS” (Swansea University, priority 2013, published 2023).

Experiments:
[1] = system: Islet1+ oculomotor neurons; assay: In utero injection into the cerebral aqueduct of E11.5 mice, analysis at E13.5; assay type: in vivo, mouse
Description: Animals for in-utero injections and tissue preparation. Female wild-type CD-1 mice (25-35 g; Charles River Breeding Laboratories) were housed, bred, and treated according to the guidelines of the European Communities Council (directive 86/609/EEC) and the Society for Neuroscience (www.sfr.org), and all experiments were approved by the local ethical committee. Ethical approval for CD-I mice experimentation was granted by Stockholm Norra Djurforsoksetisks Namnd number N1 54/06, N273/11 and N370/09. For embryo analyses, wild type CD-I mice were mated overnight, and noon of the day the plug was considered E0.5. Embryos were dissected out of the uterine horns in ice-cold PBS, fixed in 4% paraformaldehyde (PFA) for 4 h to overnight, cryoprotected in 15-30% sucrose, frozen in Tissue-Tek Optimum Cutting Temperature (OCT) compound (Sakura Fine-Tek) on dry ice, and stored at −80° C. until use. Serial coronal 14-μπι sections of the brain were obtained on a cryostat.
Immunohistochemical analysis of sections. Ten sets of 14 μπι serial coronal sections were cut on a cryostat. No. 1 and 6 sets were subjected to immunohistochemistry. Sections were pre-incubated for 1 h in blocking solution followed by incubation at 4° C. overnight with following primary antibodies: anti-TH (1:750, Pel-Freeze), anti-Islet-1 (1:100; Developmental Studies Hybridoma Bank), anti-cleaved caspase-3 (Aspl175) (1:100; Cell Signaling Technology). After washing, slides were incubated for 1-2 h at room temperature with the appropriate fluorophore-conjugated (Cy2-, Cy3- and Cy5-, 1:300, Jackson Laboratories; Alexa488-, 555-, and 647-, 1:1000, Invitrogen) secondary antibodies. Confocal pictures were taken with a Zeiss LSM5 Exciter or LSM700 microscope.
In utero intraventricular injections. E11.5 pregnant females were deeply anesthetized using Isofluorane (ISOFLO®, Abbott Labs) and the uterine horns were accessed through an abdominal incision. 1 μL of the different cholestenoic acids studied (5 mM) or vehicle solution (isopropanol, 50% v/v) was injected into the cerebral aqueduct. The uterine horns were replaced into the abdominal cavity, which was then closed with sutures. Embryos were analyzed 48 h later.

[2] = system: mouse E11.5 brain primary cultures; assay: Mouse E11.5 brain primary cultures (Islet1+, active caspase 3+, BrdU, Nkx6.1 counts); assay type: cell-based; settings: for Number of Islet1+ cells: 3 DIV; for Number of active caspase-3+ cells: 10 μM 3β,7α-diHCA, 3βH,7O-CA, 25-HC, low concentrations of 3β,7β-diHCA, 3β-HCA
Description: Primary Brain Cultures. Brains from E11.5 mice were manually dissected, plated on poly-D-lysine (150,000 cells/cm2) and grown in serum-free N2 media consisting of 1:1 mixture of F12 and DMEM with 10 ng/mL insulin, 100 μg/mL apo-transferrin, 100 μM putrescine, 20 nM progesterone, 30 nM selenium, 6 mg/mL glucose, and 1 mg/mL BSA. Cells were treated for 3 days in vitro (DIV) with the compounds of interest, fixed with 4% PFA and processed for staining using appropriate antibodies.
For BrdU analysis, cells were treated with BrdU one hour after plating and media was replaced with fresh medium after 16 h. After a further 2 days in culture, cells were treated for 30 min with 2N HCl and then immunocytochemistry was performed to evaluate the number of double BrdU+;Islet1+ cells (a measure of motor neuron neurogenesis). Hoechst staining was performed by permeabilizing cells with a 0.3% Triton-X 100/PBS solution for 5 min followed by incubation with Hoechst 33258 (Sigma) for 10 min.
Antibodies and Detection Procedures. Cells were fixed in 4% PFA, washed in PBS and blocked in 5% normal goat serum/PBS for 1 h at room temperature. Primary antibodies were diluted in PBS (pH 7.4), 0.3% Triton X-100, 1% BSA and incubations were carried out overnight at +4° C. or at room temperature for 2 h. The antibodies used were anti-: BrdU (1:400; Abeam), Islet-1 (1:100; Developmental Studies Hybridoma Bank), cleaved caspase-3 (Asp175) (1:100; Cell Signaling Technology), tyrosine hydroxylase (TH;1:1000; Pel-Freeze) GABA (1:1,000; Sigma), Brn3a (1:250; Millipore), Nkx6.1 (1:200; Novus Biologicals), choline acetyltransferase (ChAT; 1:500; Millipore) and appropriate secondary antibodies (Jackson ImmunoResearch or Alexa). Cells positive for the corresponding marker were counted directly at the microscope at a magnification of 20 x. Cells were counted in every well, in eight consecutive fields (going from one side of the well to the other, passing through the center), in three different wells per experiment and in three different experiments per condition. Random pictures of the wells were taken for every condition to document the result, and representative pictures were subsequently selected to represent the quantitative data. Photos were acquired with a Zeiss Axioplan microscope and a Hamamatsu camera C4742-95 using the Openlab software.

[3] = system: Abca1, Abcg1 and Srebf1 transcript levels; assay: Quantitative PCR of Lxr target genes in SN4741 cells; assay type: cell-based, mouse; settings: SN4741 cells treated 3 h
Description: (§1) Quantitative PCR. Total RNA was extracted from SN4741 cells and zebrafish treated with the compounds of interest using the RNeasy Mini Kit (Qiagen), 1 μg was treated with RQ1 RNase-free DNase (Promega) and reverse transcribed using Superscript II Reverse Transcriptase (Invitrogen) and random primers (Invitrogen) (RT+ reaction). Parallel reactions without reverse transcriptase enzyme were done as a control (RT− reaction), and Sybergreen real-time quantitative PCR assays were performed. Expression levels were obtained by normalization with the value of the housekeeping gene encoding actin obtained for every sample in parallel assays.

[4] = system: Islet-1:GFP transgenic zebrafish embryos; assay type: in vivo
Description: as §1
Zebrafish Strain and Mainrenance Zebrafish were raised on a 14/10 h day/night cycle and were kept at 28.5° C. Islet-1:GFP transgenic embryos were obtained via natural spawning and staged in hours or days post fertilization (hpf and dpf) according to Kimmel et al). Embryos older than 24 hpf were treated with 0.03% phenylthiourea (PTU) to inhibit pigmentation. MO injections were performed using splice site specific zebrafish 1xr MO. MO injected embryos were immediately dechorionated and transferred to a 96 well plate and exposed to dimethyl sulfoxide (DMSO) treated or ligand treated medium.
Compound Exposure. Islet-1:GFP embryos were collected by natural mating and immediately (at 1 cell stage) dechorionated and transferred to a 96 well plate. Each of the compounds tested were obtained as 10 mM stock and diluted in embryo medium to a final concentration of 10 μM, and 200 μL was added to each well. DMSO or propan-2-ol treated embryo medium was taken as control. Ligand solutions were replaced every 12 h with fresh ligand solution prepared in PTU treated embryo medium. Embryos were collected at 48 hpf, fixed for 4 h at room temperature with 4% paraformaldehyde and then washed and kept in PBST. Immunocytochemistry was performed using an anti-GFP antibody and fluorescence was viewed and photographed using a Zeiss Axioplan compound microscope and a Zeiss Axiocam digital camera.

[5] = 1 μL of 5 mM injected at E11.5, analysed at E13.5

| Compound | Number of Islet+ oculomotor neurons in vivo [1, 5] | Number of Nkx6.1+ progenitor cells [2] | Concentration at which toxicity is initiated (active caspase-3+ cells) ([2]; mouse, E11.5 mouse brain primary cultures, 3 days) [nM] | Number of Islet1+ cells ([2]; wild type cultures) | Number of active caspase-3+ cells ([2]; wt cultures) | Abca1, Abcg1 and Srebf1 transcript levels [3] | Toxicity to zebrafish embryos ([4]; 10 μM in medium) | Number of TH+ neurons in vivo [1, 5] | Effect of co-injection on the 3β-HCA-induced reduction of Islet+ oculomotor neurons ([1]; co-injected with 3β-HCA) | Number of other midbrain neurons (TH+ dopamine, GABAergic, red nucleus) [2] | Reduction of neuronal cell death (activated caspase 3) induced by 2 μM 3β,7β-diHCA or 3β-HCA ([2]; 10 μM) | Rescue of loss of Islet1+ cells induced by 2 μM 3β,7β-diHCA or 3β-HCA ([2]; 10 μM) | Effect on active caspase-3+ cells with GGPP ([2]; GGPP 10 μM, 3β,7β-diHCA, 3β-HCA at 2 μM) | Concentration with significant difference (p<0.05) from vehicle in number of Islet1+ cells ([2]; wild type cultures, dose response) [µM] | Effect on Islet1+ cells with Lxr antagonist GGPP ([2]; wt cultures, GGPP 10 μM) | Islet-1 mRNA and protein level (qPCR, western blot) ([4]; 10 μM) | abca1 mRNA expression in vivo ([4]; 10 μM) | Islet-GFP expression in cranial nerves ([4]; 10 μM, 48 hpf) | Number of Islet1+ cells in cranial nerves (III, IV, V, VII, X) ([4]; 10 μM, 48 hpf) | Islet-GFP levels after lxr morpholino (MO) injection ([4]; 10 μM, lxr MO vs control scrambled MO) |
| --- | --- | --- | --- | --- | --- | --- | --- | --- | --- | --- | --- | --- | --- | --- | --- | --- | --- | --- | --- | --- |
| CC(CCC[C@@H](C)[C@H]1CC[C@H]2[C@@H]3CC=C4C[C@@H](O)CC[C@]4(C)[C@H]3CC[C@]12C)C(=O)O (stereo partly drawn) [3β-HCA, 3β-hydroxycholest-5-en-26-oic acid] | the number of Islet+ oculomotor neurons was reduced | did not affect the number of Nkx6.1+ progenitor cells | 1000 | caused the loss of Islet1+ cells in the cultures | increased the number of active caspase-3+ cells | induced transcription, but to a lesser extent | deleterious toxic effect which impaired the survival of the fish |  |  |  |  |  |  |  |  |  |  |  |  |  |
| CC(CCC[C@@H](C)[C@H]1CC[C@H]2[C@@H]3[C@H](O)C=C4C[C@@H](O)CC[C@]4(C)[C@H]3CC[C@]12C)C(=O)O (stereo partly drawn) [3β,7α-diHCA, 3β,7α-dihydroxycholest-5-en-26-oic acid] | an increase in the number of Islet+ oculomotor neurons | did not affect the number of Nkx6.1+ progenitor cells |  | increased the number of Islet1+ oculomotor cells in the cultures | decreased the number of active caspase-3+ cells | increased transcripts levels to a similar degree as 22R-HC |  | not of TH+ neurons | this effect was eliminated by co-injection of 3β,7α-diHCA | did not affect the number of other midbrain neurons | reduced the neuronal cell death | reversed the loss of Islet 1+ cells | completely blocked by co-incubation with the Lxr inhibitor GGPP | ≥ 5 | blocked by the Lxr antagonist GGPP | increase in the level of Islet-1 mRNA and protein | enhanced expression of abca1 | increased Islet-GFP expression | no significant effect on the number of Islet1+ cells | abolished the in vivo increase in Islet-GFP levels |
